# Earlier results in patent US20040147581A1, “Method of using a Cox-2 inhibitor and a 5-HT1A receptor modulator as a combination therapy” (Pharmacia Corporation, priority 2002, published 2004).
# Test system: fibroblast growth factor-induced corneal angiogenesis
# Settings: rats
smiles,measurement,value
"Cc1ccc(-c2cc(C(F)(F)F)nn2-c2ccc(S(N)(=O)=O)cc2)cc1 [Celecoxib, celecoxib]",inhibition of fibroblast growth factor-induced corneal angiogenesis,potent inhibition
